# Entries after “also recorded” stand apart in the source; their conditions may differ.
# Key:
# HMTK1 [1] = assay: Binding of purified HMTK1 to immobilized pYEEI peptide; parameters: species or system Monosiga brevicollis; conditions: 20 µg protein, 30 µl immobilized peptide, 1 hour at 4°C; Coomassie; Fig. 3A
# Description: (§1) The PTB ligand-containing peptide, Phe-containing PTB control, and pYEEI peptide (EPQpYEEIG) were linked to Affi-Gel 15 resin (Bio-Rad) following the manufacturer's protocols. Purified HMTK1 or the isolated PTB domain were incubated for 1 hour at 4°C with the immobilized peptides. After binding, the beads were washed 4 times with 1 ml of binding buffer (50 mM Tris-HCl pH 7.5, 5 mM EDTA, 100 mM NaCl, 0.1% Triton X-100, 1 mM DTT, 0.5 mM Na3VO4). Bound proteins were eluted with SDS-PAGE loading buffer, separated by 10% SDS-PAGE, and visualized either by Coomassie blue staining or by Western blotting.
# (§2) Figure 3 Binding reactions with pYEEI-containing peptide. (A). Purified HMTK1 or c-Src (20 µg) were mixed with 30 µl of immobilized pYEEI peptide (pY) or control resin (C) in total volumes of 175 µl for 1 hour at 4°C. After binding, the resins were washed 4 times with 200 µl of binding buffer. Bound proteins were eluted with SDS-PAGE sample buffer and analyzed by gel electrophoresis with Coomassie blue staining. (B). The isolated HMTK1 PTB domain (8 µg) was incubated with 50 µl of immobilized pYEEI peptide (pY) or control resin (C) in total volumes of 400 µl for 1 hour at 4°C. After washing, bound proteins were eluted with SDS-PAGE sample buffer and analyzed by Western blotting with anti-GST antibody. (C). […] After washing, bound proteins were analyzed by anti-FLAG Western blotting. […]
# FLAG-tagged ΔPTB HMTK1 = assay: Pulldown of FLAG-tagged ΔPTB HMTK1 from SYF cell lysates with immobilized pYEEI; assay type: binding, Monosiga brevicollis; conditions: immobilized peptide; anti-FLAG Western; Fig. 3C
# Description: (§3) For expression in insect cells, HMTK1 DNA (encoding residues 341–761) was cloned into the EcoRI site of pFastbac-Hta (Invitrogen). FLAG-tagged HMTK1 was expressed in mammalian cells by subcloning into the BglII and BamHI sites of p3XFLAG-CMV (Sigma). The ΔPTB version of this construct was prepared by PCR amplification and subsequent recloning into the BamHI and EcoRI sites of p3XFLAG-CMV. Site-directed mutagenesis of FLAG-HMTK1 was carried out using the QuikChange kit (Stratagene). To express the isolated third PTB domain (residues 341–474) in bacterial cells, this PCR fragment was cloned into the EcoRI site of plasmid pGEX-4T-1 (GE Healthcare). All constructs were confirmed by DNA sequencing.
# (§4) The PTB ligand-containing peptide, Phe-containing PTB control, and pYEEI peptide (EPQpYEEIG) were linked to Affi-Gel 15 resin (Bio-Rad) following the manufacturer's protocols. Purified HMTK1 or the isolated PTB domain were incubated for 1 hour at 4°C with the immobilized peptides. […]
# (§5) Figure 3 Binding reactions with pYEEI-containing peptide. […] Bound proteins were eluted with SDS-PAGE sample buffer and analyzed by gel electrophoresis with Coomassie blue staining. […] After washing, bound proteins were eluted with SDS-PAGE sample buffer and analyzed by Western blotting with anti-GST antibody. […] After washing, bound proteins were analyzed by anti-FLAG Western blotting. […]
# [2] = system: FLAG-tagged wild-type HMTK1; assay: Pulldown of FLAG-tagged wild-type HMTK1 from SYF cell lysates with immobilized peptides; assay type: binding, Monosiga brevicollis; conditions: immobilized peptide; anti-FLAG Western; Fig. 3C
# Description: as §3, §4, §5
# [3] = system: isolated HMTK1 PTB domain; assay: Pulldown of isolated HMTK1 PTB domain with immobilized pYEEI peptide; assay type: binding, Monosiga brevicollis; conditions: 8 µg PTB domain, 50 µl immobilized peptide, 1 hour at 4°C; anti-GST Western; Fig. 3B
# Description: HMTK1 was expressed in Spodoptera frugiperda (Sf9) insect cells using the Bac-to-Bac system (Invitrogen). Sf9 cells (800 ml) were infected with HMTK1 baculovirus and harvested after three days. Cells were lysed in a French pressure cell, and His-tagged HMTK1 was purified using nickel-nitrilotriacetic acid resin (Qiagen), as described previously. Peak fractions were pooled and concentrated in an Amicon Ultrafiltration device (molecular weight cutoff: 30,000 daltons). The purified protein was stored in 40% glycerol at −20°C. The isolated PTB domain of HMTK1 was produced as a fusion with glutathione S-transferase (GST). E. coli cells (1 liter) expressing the GST fusion protein were lysed in a French pressure cell, and the GST-PTB protein was purified by chromatography on a glutathione-agarose column (Molecular Probes).
# The PTB ligand-containing peptide, Phe-containing PTB control, and pYEEI peptide (EPQpYEEIG) were linked to Affi-Gel 15 resin (Bio-Rad) following the manufacturer's protocols. […]
# as §5
# c-Src = assay: Binding of purified Src to immobilized pYEEI peptide; conditions: positive control; 20 µg protein, 30 µl immobilized peptide, 1 hour at 4°C; Coomassie; Fig. 3A
# Description: as §1, §2
# HMTK1 [4] = assay: Substrate targeting: phosphorylation of PTB ligand-containing substrate and control by HMTK1; assay type: biochemical, Monosiga brevicollis; conditions: 30 µM peptide, 300 nM HMTK1, 20 mM Tris-HCl pH 7.4, 10 mM MgCl2, 0.2 mM ATP, Fig. 5B
# Description: Kinase assays were performed by two methods. Initial activity measurements were performed by the phosphocellulose paper binding assay. Reaction mixtures contained 20 mM Tris-HCl (pH 7.4), 10 mM MgCl2, 0.2 mM ATP, [γ-^32P]-ATP (30–50 cpm/pmol), and varying amounts of HMTK1 and peptide substrates. All peptide substrates were purified by high pressure liquid chromatography and characterized by mass spectrometry prior to use. The following substrates were used: c-Src peptide, […]; MbSTAT peptide, […]; RTKB2 peptide 1, […]; RTKB2 peptide 2, […]; SH2 binding substrates (varying linker lengths), […]pYEEIG, […]pYEEIG, and […]pYEEIG; SH2 control substrate, […]. […] Kinetic constants were determined by nonlinear fitting to the [substrate] vs. velocity curves using GraphPad Prism 4.
# Figure 5 Substrate targeting by PTB ligand. […] After washing, bound proteins were eluted with SDS-PAGE sample buffer and analyzed by Western blotting with anti-His6-tag antibody. (B) The kinase activity of HMTK1 (300 nM) toward the PTB ligand-containing substrate or PTB control substrate (shown schematically) was determined using the phosphocellulose paper assay. […] Incorporation of ^32P into the peptides was determined by scintillation counting.
# Hck = conditions: Src family kinase Hck with the same peptide; ref [24]; cited from earlier work
# Text: We selected a pair of peptides for further study. […] We synthesized an individual peptide in which the sequence NFTNPVpYATG was connected to a tyrosine kinase substrate sequence.
# HMTK1 [5] = assay: Steady-state kinetics, continuous spectrophotometric assay; assay type: biochemical, Monosiga brevicollis; conditions: HMTK1 0.3–0.5 µM, peptide 0–700 µM, 100 mM Tris pH 7.4, 10 mM MgCl2, 2 mM ATP, 30°C
# Description: Kinase assays were performed by two methods. Initial activity measurements were performed by the phosphocellulose paper binding assay. Reaction mixtures contained 20 mM Tris-HCl (pH 7.4), 10 mM MgCl2, 0.2 mM ATP, [γ-^32P]-ATP (30–50 cpm/pmol), and varying amounts of HMTK1 and peptide substrates. All peptide substrates were purified by high pressure liquid chromatography and characterized by mass spectrometry prior to use. The following substrates were used: c-Src peptide, […]; MbSTAT peptide, […]; RTKB2 peptide 1, […]; RTKB2 peptide 2, […]; SH2 binding substrates (varying linker lengths), […]pYEEIG, […]pYEEIG, and […]pYEEIG; SH2 control substrate, […]. Initial rate kinetic measurements on the PTB ligand-containing substrate ([…]pYATLG) and on the Phe-containing PTB control ([…]) were carried out using a continuous spectrophotometric assay. Reactions were performed at 30°C in a final volume of 50 µl. The reactions contained 100 mM Tris pH 7.4, 10 mM MgCl2, 2 mM ATP, 1.5 mM phosphoenolpyruvate, 90 units/ml of pyruvate kinase, 109 units/ml of lactate dehydrogenase, and 1.2 mg/ml of NADH. For determination of Km values, the enzyme concentrations were 0.3–0.5 µM and the peptide concentrations ranged from 0–700 µM. Kinetic constants were determined by nonlinear fitting to the [substrate] vs. velocity curves using GraphPad Prism 4.
# HMTK1 [6] = assay: Binding of purified HMTK1 to immobilized PTB ligand peptides; parameters: species or system Monosiga brevicollis; conditions: 6.6 µg HMTK1; peptide on Affi-Gel resin; 1 hour at 4°C; anti-His6 Western; Fig. 5A
# Description: as §1
# Figure 5 Substrate targeting by PTB ligand. (A) Purified HMTK1 (6.6 µg) was incubated with PTB ligand-containing substrate ([…]pYATLG), PTB control substrate ([…]), pYEEI peptide, or control resin in final volumes of 60 µl. After washing, bound proteins were eluted with SDS-PAGE sample buffer and analyzed by Western blotting with anti-His6-tag antibody. (B) The kinase activity of HMTK1 (300 nM) toward the PTB ligand-containing substrate or PTB control substrate (shown schematically) was determined using the phosphocellulose paper assay. The reaction contained 20 mM Tris-HCl (pH 7.4), 10 mM MgCl2, 0.2 mM ATP, 30 µM peptide, and [γ-^32P]-ATP. […] Incorporation of ^32P into the peptides was determined by scintillation counting.
# HMTK1 PTB domain = assay: Peptide array (PepSpots) probed with biotinylated HMTK1 PTB domain; assay type: binding, Monosiga brevicollis; conditions: 10 µg/ml PTB, 5% BSA, 20 mM Hepes pH 7.3, 30 min at room temperature; streptavidin-HRP chemiluminescence; Fig. 4A
# Text: The PTB domain of HMTK1 was cloned as an EcoR1 fragment into a modified pGEX (GE Healthcare Life Sciences) bicistronic vector pGEX-4T-BiotinN to express the gene of interest and the biotin ligase (BirA) in the same cell ([19]; Chan et al., in press). […] The resulting pGEX-BiotinN-PTB construct was transformed into E. coli BL21(DE3) cells for expression. GST-biotin-PTB protein was purified using glutathione-agarose and desalted using a PD-10 (GE Healthcare) gel filtration column.
# N-terminally acetylated 11-residue peptides were synthesized using standard chemistry in situ (PepSpots) on cellulose based matrix (Jerini Biotools). To ensure protein accessibility, each peptide contained a 4-residue spacer consisting of a glycine and 3 β-alanines. All peptides were immobilized via their C-termini. […] Prior to usage, peptide array membranes were washed in binding buffer (20 mM Hepes pH 7.3, 137 mM NaCl, 5 mM KCl, 0.05% Tween-20) and blocked with 5% filtered bovine serum albumin in the same buffer. […] After washing in binding buffer (3×10 min), bound PTB was detected using enhanced chemiluminescence and standard X-ray film.
# Figure 4 Peptide array experiment. […] Bound PTB domain was detected using streptavidin-HRP and enhanced chemiluminescence. […]
# SYF cells = assay: Anti-phosphotyrosine Western blotting of SYF cell lysates; assay type: cell-based, mammalian; conditions: 0.1 or 1.0 mM sodium orthovanadate, 20 minutes, 37°C; Fig. S4B
# Description: SYF cells were cultured in Dulbecco's modified Eagle's medium (Mediatech, Inc.) supplemented with 10% fetal bovine serum (Sigma) and 1000 UI/ml penicillin, 1000 UI/ml streptomycin and 25 ng/ml amphotericin B (Mediatech, Inc.). SYF cells (2.25×10^6) were plated in 15-cm diameter dishes and transfected after 24 hours using 5–15 µg of DNA and 2 µl TransIT per µg DNA. After 48 hours, the cells were harvested, washed twice with PBS and lysed using radioimmune precipitation assay (RIPA) buffer (50 mM Tris-HCl pH 7.4, 150 mM NaCl, 5 mM EDTA, 1% sodium deoxycholate, 1% Nonidet P-40) supplemented with the protease inhibitors leupeptin (10 µg/ml), aprotinin (10 µg/ml), PMSF (200 µM) and the phosphatase inhibitors Na3VO4 (0.2 mM) and NaF (10 mM). Lysates (50 µg) were separated by 10% SDS-PAGE, transferred to PVDF membranes and probed with the appropriate antibodies. For immunoprecipitation, cell lysates (100 µg) were incubated overnight at 4°C with 40 µl of EZview red anti-Flag M2 affinity gel pre-equilibrated with RIPA buffer in a total volume of 1 ml. The immunocomplexes were washed 4 times, eluted from the beads by adding Laemmli buffer, separated by SDS-PAGE, transferred to PVDF membranes and probed with the appropriate antibodies.
# Whole cell lysates were analyzed by SDS-PAGE and Western blotting with anti-pTyr, anti-FLAG, or anti-tubulin antibodies, as indicated. […]
substance,measurement,setting,value
EPQpYEEIG [Src SH2 ligand peptide linked to Affi-Gel 15 resin],binding to purified HMTK1,HMTK1 [1],bound
same,binding to ΔPTB HMTK1 (SYF lysate),FLAG-tagged ΔPTB HMTK1,did not
same,binding to wild-type HMTK1 (SYF lysate),[2],bound
same,binding to isolated HMTK1 PTB domain,[3],pYEEI-binding activity was localized to the PTB domain; also recorded: bound
same,binding to purified Src,c-Src,bound
KKAEEEIYGEFEANFTNPVpYATLG [pTyr peptide],phosphorylation by HMTK1 compared to Phe control,HMTK1 [4]; listed as pTyr-containing peptide,preferentially phosphorylated
same,phosphorylation by HMTK1 compared to Phe control,HMTK1 [4]; listed as synthetic peptide containing this sequence (with pTyr),phosphorylated more efficiently
same,Vmax (Hck),Hck,3.0 µmol/min/mg enzyme
same,Vmax,HMTK1 [5],4.9 µmol/min/mg enzyme
same,Km,HMTK1 [5]; nonlinear fitting,33 µM
same,binding to purified HMTK1,HMTK1 [6],bound
TNFTNPVYATLG,"binding of biotinylated PTB domain to array peptides, phosphorylated vs unphosphorylated",HMTK1 PTB domain,bound much more strongly in the phosphorylated state
sodium orthovanadate,overall phosphorylation in SYF cells,SYF cells,enhanced overall phosphorylation

# Reference: paper PMC3082566, “PTB Domain-Directed Substrate Targeting in a Tyrosine Kinase from the Unicellular Choanoflagellate Monosiga brevicollis” (PLoS ONE, 2011)
